Data on 36 compounds can be found in patent US7846941B2, “Compounds modulating c-kit and c-fms activity and uses therefor” (Plexxikon, Inc., priority 2005, dated 2010).

One assay concerns cells with activating c-kit mutations.
Experiment: not given
As to conditions: mutations in the catalytic region of c-kit; cited from earlier work.
Turning to `Cc1ccc(NC(=O)c2ccc(CN3CCN(C)CC3)cc2)cc1Nc1nccc(-c2cccnc2)n1` [STI571], the “inhibition of cells with c-kit mutations” value is given as “did not inhibit”.

The target in the next assay is c-kit (Homo sapiens, UniProt P10721). The assay can be described thus: c-kit assays of Examples 40 and 41 (AlphaScreen and 33P kinase assays, M-07e proliferation and phosphorylation).
Chain of c-kit (P10721 with tags, fused parts or gaps): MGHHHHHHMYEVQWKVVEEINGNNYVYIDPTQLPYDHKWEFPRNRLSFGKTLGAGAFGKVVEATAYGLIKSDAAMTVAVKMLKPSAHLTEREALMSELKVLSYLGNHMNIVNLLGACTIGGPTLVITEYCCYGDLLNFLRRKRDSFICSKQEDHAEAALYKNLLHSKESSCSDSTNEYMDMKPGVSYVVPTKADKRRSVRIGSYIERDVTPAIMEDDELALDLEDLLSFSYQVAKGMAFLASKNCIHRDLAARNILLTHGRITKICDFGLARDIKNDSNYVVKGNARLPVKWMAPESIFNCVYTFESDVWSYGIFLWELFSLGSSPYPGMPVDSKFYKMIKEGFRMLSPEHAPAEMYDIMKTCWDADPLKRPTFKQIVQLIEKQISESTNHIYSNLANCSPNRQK
Settings: not given
A general note: Alpha assays give light when donor and acceptor beads are brought close together.
As for `FC(F)(F)c1ccc(CNc2ccc(Cc3c[nH]c4ncccc34)cn2)cc1` [Compound P-0003, [5-(1H-Pyrrolo[2,3-b]pyridin-3-ylmethyl)-pyridin-2-yl]-(4-trifluoromethyl-benzyl)-amine], the half-maximal inhibitory concentration (IC50) (commonly the midpoint of a concentration-inhibition curve) is less than 1000 nM.
Compound `Clc1ccc(CNc2ccc(Cc3c[nH]c4nccc(Cl)c34)cn2)cc1` [Compound P-0009, [5-(4-chloro-1H-pyrrolo[2,3-b]pyridin-3-ylmethyl)-pyridin-2-yl]-(4-chloro-benzyl)-amine] returned a concentration for half-maximal inhibition (IC50) of less than 1000 nM.
Still for that read-out and setting: next, `COc1nc(NCc2ccc(C(F)(F)F)cc2)ccc1Cc1c[nH]c2ncccc12` [Compound P-0012, [6-Methoxy-5-(1H-pyrrolo[2,3-b]pyridin-3-ylmethyl)-pyridin-2-yl]-(4-trifluoromethyl-benzyl)-amine]: less than 1000 nM; `O=C(c1ccc(NCc2cccc(F)c2)nc1)c1c[nH]c2ncccc12` [Compound P-0016, [6-(3-Fluoro-benzylamino)-pyridin-3-yl]-(1H-pyrrolo[2,3-b]pyridin-3-yl)-methanone]: less than 1000 nM.
Same read-out and setting: next, `CC(C)(C)Oc1ccc(Cc2c[nH]c3ncccc23)cn1` [Compound P-0020, 3-(6-tert-Butoxy-pyridin-3-ylmethyl)-1H-pyrrolo[2,3-b]pyridine]: less than 1000 nM; `CC(C)Nc1ccc(C(=O)c2c[nH]c3ncccc23)cn1` [Compound P-0024, (6-Isopropylamino-pyridin-3-yl)-(1H-pyrrolo[2,3-b]pyridin-3-yl)-methanone]: less than 1000 nM.
With `CC(C)CNc1ccc(C(=O)c2c[nH]c3ncccc23)cn1` [Compound P-0025, (6-Isobutylamino-pyridin-3-yl)-(1H-pyrrolo[2,3-b]pyridin-3-yl)-methanone], the half-maximal inhibitory concentration (IC50) is less than 1000 nM.
Still for that read-out and setting: next, `O=C(c1ccc(Nc2cccc(OCc3ccccc3)c2)nc1)c1c[nH]c2ncccc12` [Compound P-0026, [6-(3-Benzyloxy-phenylamino)-pyridin-3-yl]-(1H-pyrrolo[2,3-b]pyridin-3-yl)-methanone]: less than 1000 nM; `CC(C)CNc1ccc(Cc2c[nH]c3ncccc23)cn1` [Compound P-0028, Isobutyl-[5-(1H-pyrrolo[2,3-b]pyridin-3-ylmethyl)-pyridin-2-yl]-amine]: less than 1000 nM; `O=C(c1ccc(NCC2CC2)nc1)c1c[nH]c2ncccc12` [Compound P-0030, [6-(Cyclopropylmethyl-amino)-pyridin-3-yl]-(1H-pyrrolo[2,3-b]pyridin-3-yl)-methanone]: less than 1000 nM.
On to `O=C(c1ccc(NCC2CCCCC2)nc1)c1c[nH]c2ncccc12` [Compound P-0031, [6-(Cyclohexylmethyl-amino)-pyridin-3-yl]-(1H-pyrrolo[2,3-b]pyridin-3-yl)-methanone], for which the IC50 was less than 1000 nM.
Take `c1cnc2[nH]cc(Cc3ccc(NCC4CC4)nc3)c2c1` [Compound P-0032, Cyclopropylmethyl-[5-(1H-pyrrolo[2,3-b]pyridin-3-ylmethyl)-pyridin-2-yl]-amine]: the 50% inhibitory concentration (IC50) was less than 1000 nM.
On the same count and under the same terms, next, `c1cnc2[nH]cc(Cc3ccc(NCC4CCCCC4)nc3)c2c1` [Compound P-0033, Cyclohexylmethyl-[5-(1H-pyrrolo[2,3-b]pyridin-3-ylmethyl)-pyridin-2-yl]-amine]: less than 1000 nM; `COc1cnc2[nH]cc(Cc3ccc(NCc4ccc(C(F)(F)F)cc4)nc3)c2c1` [Compound P-0053, [5-(5-Methoxy-1H-pyrrolo[2,3-b]pyridin-3-ylmethyl)-pyridin-2-yl]-(4-trifluoromethyl-benzyl)-amine]: less than 1000 nM.
The compound `FC(F)(F)c1ccc(CNc2ccc(Cc3c[nH]c4ncc(Cl)cc34)cn2)cc1` [Compound P-0054, [5-(5-Chloro-1H-pyrrolo[2,3-b]pyridin-3-ylmethyl)-pyridin-2-yl]-(4-trifluoromethyl-benzyl)-amine] displayed an IC50 of less than 1000 nM.
The same measure, in the same setting: next, `Clc1cccc(COc2ccc(Cc3c[nH]c4ncccc34)cn2)c1` [Compound P-0055, 3-[6-(3-Chloro-benzyloxy)-pyridin-3-ylmethyl]-1H-pyrrolo[2,3-b]pyridine]: less than 1000 nM; `Clc1ccc(COc2ccc(Cc3c[nH]c4ncccc34)cn2)cc1` [Compound P-0056, 3-[6-(4-Chloro-benzyloxy)-pyridin-3-ylmethyl]-1H-pyrrolo[2,3-b]pyridine]: less than 1000 nM.
The same measure, in the same setting: next, `FC(F)(F)c1cccc(COc2ccc(Cc3c[nH]c4ncccc34)cn2)c1` [Compound P-0057, 3-[6-(3-Trifluoromethyl-benzyloxy)-pyridin-3-ylmethyl]-1H-pyrrolo[2,3-b]pyridine]: less than 1000 nM; `COc1cnc2[nH]cc(Cc3ccc(NCc4ccc(Cl)cc4)nc3)c2c1` [Compound P-0058, (4-Chloro-benzyl)-[5-(5-methoxy-1H-pyrrolo[2,3-b]pyridin-3-ylmethyl)-pyridin-2-yl]-amine]: less than 1000 nM; `Clc1ccc(CNc2ccc(Cc3c[nH]c4ncc(Cl)cc34)cn2)cc1` [Compound P-0059, (4-Chloro-benzyl)-[5-(5-chloro-1H-pyrrolo[2,3-b]pyridin-3-ylmethyl)-pyridin-2-yl]-amine]: less than 1000 nM.
The compound `CCN(CC)CCOc1cnc2[nH]cc(Cc3ccc(NCc4ccc(C(F)(F)F)cc4)nc3)c2c1` [Compound P-0060, {5-[5-(2-Diethylamino-ethoxy)-1H-pyrrolo[2,3-b]pyridin-3-ylmethyl]-pyridin-2-yl}-(4-trifluoromethyl-benzyl)-amine] came in with an IC50 of less than 1000 nM.
Same read-out and setting: next, `Oc1cnc2[nH]cc(Cc3ccc(NCc4ccc(C(F)(F)F)cc4)nc3)c2c1` [Compound P-0061, 3-[6-(4-Trifluoromethyl-benzylamino)-pyridin-3-ylmethyl]-1H-pyrrolo[2,3-b]pyridin-5-ol]: less than 1000 nM; `Oc1cnc2[nH]cc(Cc3ccc(NCc4ccc(Cl)cc4)nc3)c2c1` [Compound P-0062, 3-[6-(4-Chloro-benzylamino)-pyridin-3-ylmethyl]-1H-pyrrolo[2,3-b]pyridin-5-ol]: less than 1000 nM.
On the same count and under the same terms, next, `Clc1ccc(CNc2ccc(Cc3c[nH]c4ncc(OCCN5CCOCC5)cc34)cn2)cc1` [Compound P-0063, (4-Chloro-benzyl)-{5-[5-(2-morpholin-4-yl-ethoxy)-1H-pyrrolo[2,3-b]pyridin-3-ylmethyl]-pyridin-2-yl}-amine]: less than 1000 nM; `FC(F)(F)c1ccc(CNc2ccc(Cc3c[nH]c4ncc(OCCN5CCCC5)cc34)cn2)cc1` [Compound P-0064, {5-[5-(2-Pyrrolidin-1-yl-ethoxy)-1H-pyrrolo[2,3-b]pyridin-3-ylmethyl]-pyridin-2-yl}-(4-trifluoromethyl-benzyl)-amine]: less than 1000 nM; `FC(F)(F)c1ccc(CNc2ccc(Cc3c[nH]c4ncc(OCCN5CCOCC5)cc34)cn2)cc1` [Compound P-0065, {5-[5-(2-Morpholin-4-yl-ethoxy)-1H-pyrrolo[2,3-b]pyridin-3-ylmethyl]-pyridin-2-yl}-(4-trifluoromethyl-benzyl)-amine]: less than 1000 nM.
On the same count and under the same terms, next, `CCN(CC)CCCOc1cnc2[nH]cc(Cc3ccc(NCc4ccc(C(F)(F)F)cc4)nc3)c2c1` [Compound P-0066, {5-[5-(3-Diethylamino-propoxy)-1H-pyrrolo[2,3-b]pyridin-3-ylmethyl]-pyridin-2-yl}-(4-trifluoromethyl-benzyl)-amine]: less than 1000 nM; `CCN(CC)CCCOc1cnc2[nH]cc(Cc3ccc(NCc4ccc(Cl)cc4)nc3)c2c1` [Compound P-0069, (4-Chloro-benzyl)-{5-[5-(3-diethylamino-propoxy)-1H-pyrrolo[2,3-b]pyridin-3-ylmethyl]-pyridin-2-yl}-amine]: less than 1000 nM; `O=S(=O)(Nc1ccc(Cc2c[nH]c3ncccc23)cn1)c1ccc(C(F)(F)F)cc1` [Compound P-0071, N-[5-(1H-Pyrrolo[2,3-b]pyridin-3-ylmethyl)-pyridin-2-yl]-4-trifluoromethyl-benzenesulfonamide]: less than 1000 nM.
Consider `O=C(Nc1ccc(Cc2c[nH]c3ncccc23)cn1)c1ccc(C(F)(F)F)cc1` [Compound P-0072, N-[5-(1H-Pyrrolo[2,3-b]pyridin-3-ylmethyl)-pyridin-2-yl]-4-trifluoromethyl-benzamide], for which the IC50 is less than 1000 nM.
The compound `O=C(Nc1ccc(Cc2c[nH]c3ncccc23)cn1)c1ccc(F)cc1` [Compound P-0073, 4-Fluoro-N-[5-(1H-pyrrolo[2,3-b]pyridin-3-ylmethyl)-pyridin-2-yl]-benzamide] showed an IC50 of less than 1000 nM.
The compound `O=C(Nc1ccc(Cc2c[nH]c3ncccc23)cn1)c1ccc(Cl)cc1` [Compound P-0074, 4-Chloro-N-[5-(1H-pyrrolo[2,3-b]pyridin-3-ylmethyl)-pyridin-2-yl]-benzamide] registered a half-maximal inhibitory concentration (IC50) of less than 1000 nM.
In the case of `C[C@H](Nc1ccc(Cc2c[nH]c3ncccc23)cn1)c1ccc(Cl)cc1` [Compound P-0075, [(S)-1-(4-Chloro-phenyl)-ethyl]-[5-(1H-pyrrolo[2,3-b]pyridin-3-ylmethyl)-pyridin-2-yl]-amine], the IC50 was less than 1000 nM.
Turning to `Clc1ccc(NCc2ccc(Cc3c[nH]c4ncccc34)cn2)cc1` [Compound P-0078, (4-Chloro-phenyl)-[5-(1H-pyrrolo[2,3-b]pyridin-3-ylmethyl)-pyridin-2-ylmethyl]-amine], the IC50 was less than 1000 nM.
The same measure, in the same setting: next, `Fc1nc(NCc2ccc(Cl)cc2)ccc1Cc1c[nH]c2ncccc12` [Compound P-0082, (4-Chloro-benzyl)-[6-fluoro-5-(1H-pyrrolo[2,3-b]pyridin-3-ylmethyl)-pyridin-2-yl]-amine]: less than 1000 nM.
